The results in this text go back to patent US10328053B2 (Gilead Sciences, Inc., priority 2016, dated 2019).

Structures are written as SMILES.

The test system of data set [1] is pooled cryopreserved hepatocytes. Put plainly: Hepatic Stability Assay (in vitro half-life method). It is filed as in vitro ADME. More on the design: dose or concentration left out as unconfirmed. The following applies: 37° C., 1×10^6 cells/mL, 0-6 hours, LC-MS/MS, 39.5 hours is the maximum detectable half life. In a few lines: (§1)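 Pooled cryopreserved hepatocytes (1×10^6 cells/mL) incubated with compound at […] test concentration, 37° C.; samples at 0, 1, 3 and 6 h quantified by LC-MS/MS. Half-life from rate of compound disappearance, scaled to predicted hepatic clearance via well-stirred model.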

The subject of data set [2] is HBV AD38 viral particles in HepG2 cell line overexpressing NTCP. Put plainly: HBV DNA Quantification Assay. It is filed as cell-based. The following applies: Hepatitis B virus, HepG2, 120 h, HBV-infected HepG2-NTCP cells, 5 days incubation, HBV DNA in culture supernatant (QuantiGene 2.0); geometric mean of a minimum of four determinations. Put shortly: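 Antiviral EC50 derived by four-parameter dose-response fit and given as geometric mean of at least four runs. Read-out was branched-DNA (QuantiGene 2.0) luminescence for HBV DNA in culture supernatant after 5 days of compound exposure. Cells: HepG2-NTCP infected 4 days beforehand with AD38 particles, 4000 genome equivalents per cell.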

Data set [3] can be described thus: Hepatic Stability Assay (in vitro half-life method). The format is in vitro ADME. More on the design: dose or concentration left out as unconfirmed. The note with it: pooled cryopreserved hepatocytes, 37° C., 1×10^6 cells/mL, 0-6 hours, LC-MS/MS, 39.5 hours is the maximum detectable half life, read-out: t½ (converted). Put shortly:
as §1

With `CNC(=O)C1(NC(=O)C(=O)c2c(C)c(C(=O)Nc3ccc(F)c(Cl)c3)n3c2CCC3C)CC(F)(F)C1` (single isomer, unassigned) [Example 22, N-(3-chloro-4-fluorophenyl)-7-(2-((3,3-difluoro-1-(methylcarbamoyl)cyclobutyl)amino)-2-oxoacetyl)-3,6-dimethyl-2,3-dihydro-1H-pyrrolizine-5-carboxamide], the t½ (in general, the time needed for the level to fall by half in the phase considered) in data set [1] was 2.7 h. Same read-out and setting: for `CNC(=O)C1(NC(=O)C(=O)c2c(C)c(C(=O)Nc3ccc(F)c(Cl)c3)n3c2CCC3C)CC(F)(F)C1` (single isomer, unassigned) [Example 23, N-(3-chloro-4-fluorophenyl)-7-(2-((3,3-difluoro-1-(methylcarbamoyl)cyclobutyl)amino)-2-oxoacetyl)-3,6-dimethyl-2,3-dihydro-1H-pyrrolizine-5-carboxamide] the value was 9.6 h. As to `Cc1c(C(=O)C(=O)N[C@H](C)C(F)(F)F)c2n(c1C(=O)Nc1ccc(F)c(Cl)c1)C(C)CC2` (single isomer, unassigned) [Example 25], the t½ in data set [1] was found to be 9.1 h.

`CNC(=O)C1(NC(=O)C(=O)c2c(C)c(C(=O)Nc3ccc(F)c(C#N)c3)n3c2CCC3)CC(F)(F)C1` [Example 35, N-(3-cyano-4-fluorophenyl)-7-(2-((3,3-difluoro-1-(methylcarbamoyl)cyclobutyl)amino)-2-oxoacetyl)-6-methyl-2,3-dihydro-1H-pyrrolizine-5-carboxamide]: in data set [2], a half-maximal effect (EC50) was put at 109 nM. The compound further gave a t½ in data set [1] of 39.5 h.

On to `CNC(=O)C1(NC(=O)C(=O)c2c(C)c(C(=O)Nc3ccc(F)c(F)c3)n3c2CCC3)CC(F)(F)C1` [Example 44, 7-(2-((3,3-difluoro-1-(methylcarbamoyl)cyclobutyl)amino)-2-oxoacetyl)-N-(3,4-difluorophenyl)-6-methyl-2,3-dihydro-1H-pyrrolizine-5-carboxamide], for which, in data set [2], a half-maximal effect (EC50) was put at 31 nM. For the same compound, in data set [1], the t½ was determined as 39.5 h. Compound `CNC(=O)C1(NC(=O)C(=O)c2c(C)c(C(=O)Nc3ccc(F)cc3)n3c2CCC3)CC(F)(F)C1` [Example 47, 7-(2-((3,3-difluoro-1-(methylcarbamoyl)cyclobutyl)amino)-2-oxoacetyl)-N-(4-fluorophenyl)-6-methyl-2,3-dihydro-1H-pyrrolizine-5-carboxamide] showed a t½ in data set [1] of 39.5 h.

Turning to `CNC(=O)C1(NC(=O)C(=O)c2c(C)c(C(=O)Nc3ccc(F)c(F)c3)n3c2C[C@@H](F)C3)CC(F)(F)C1` [Example 49, (R)-7-(2-((3,3-difluoro-1-(methylcarbamoyl)cyclobutyl)amino)-2-oxoacetyl)-N-(3,4-difluorophenyl)-2-fluoro-6-methyl-2,3-dihydro-1H-pyrrolizine-5-carboxamide], the t½ in data set [1] turned out to be 39.5 h. Take `Cc1c(C(=O)C(=O)NC2(c3c[nH]nn3)CC2)c2n(c1C(=O)Nc1ccnc(C(F)F)c1)[C@@H]1C[C@@H]1C2` [Example 56, (1aR,6aR)-5-(2-((1-(1H-1,2,3-triazol-4-yl)cyclopropyl)amino)-2-oxoacetyl)-N-(2-(difluoromethyl)pyridin-4-yl)-4-methyl-1,1a,6,6a-tetrahydrocyclopropa[b]pyrrolizine-3-carboxamide]: the t½ in data set [1] was found to be 39.5 h. In data set [1], `Cc1c(C(=O)C(=O)NC2(c3c[nH]nn3)CC2)c2n(c1C(=O)Nc1ccc(F)cc1)CCC2` [Example 70, 7-(2-((1-(1H-1,2,3-triazol-4-yl)cyclopropyl)amino)-2-oxoacetyl)-N-(4-fluorophenyl)-6-methyl-2,3-dihydro-1H-pyrrolizine-5-carboxamide] displayed a t½ of 39.5 h. Turning to `Cc1c(C(=O)C(=O)NC2(C)CS(=O)(=O)C2)c2n(c1C(=O)Nc1ccc(F)c(C#N)c1)[C@@H]1C[C@@H]1C2` [Example 72, (1aR,6aR)—N-(3-cyano-4-fluorophenyl)-4-methyl-5-(2-((3-methyl-1,1-dioxidothietan-3-yl)amino)-2-oxoacetyl)-1,1a,6,6a-tetrahydrocyclopropa[b]pyrrolizine-3-carboxamide], in data set [1], the t½ stood at 39.5 h. Regarding `Cc1c(C(=O)C(=O)NC2(c3c[nH]nn3)CC2)c2n(c1C(=O)Nc1cc(Cl)cc(Cl)c1)CCC2` [Example 102, 7-(2-((1-(1H-1,2,3-triazol-4-yl)cyclopropyl)amino)-2-oxoacetyl)-N-(3,5-dichlorophenyl)-6-methyl-2,3-dihydro-1H-pyrrolizine-5-carboxamide], the midpoint of the response in data set [2], the EC50, lay at 112 nM. Moreover, the half-life in data set [3] is 4.8 h. The like results for `CNC(=O)C1(NC(=O)C(=O)c2c(C)c(C(=O)Nc3ccc(F)c(Cl)c3)n3c2CCC3)CC1` [Example 105, N-(3-chloro-4-fluorophenyl)-6-methyl-7-(2-((1-(methylcarbamoyl)cyclopropyl)amino)-2-oxoacetyl)-2,3-dihydro-1H-pyrrolizine-5-carboxamide] were, in that order, 170 nM and 24.3 h. As to `Cc1c(C(=O)C(=O)NC2(c3c[nH]nn3)CC2)c2n(c1C(=O)Nc1cccc(Cl)c1F)CCC2` [Example 107, 7-(2-((1-(1H-1,2,3-triazol-4-yl)cyclopropyl)amino)-2-oxoacetyl)-N-(3-chloro-2-fluorophenyl)-6-methyl-2,3-dihydro-1H-pyrrolizine-5-carboxamide], the EC50 (in general, the concentration that produces a half-maximal response) in data set [2] stood at 146 nM. In data set [3], the half-life is 9.8 h.

As to `Cc1c(C(=O)C(=O)NC2(c3c[nH]nn3)CC2)c2n(c1C(=O)Nc1ccc(F)c(F)c1F)CCC2` [Example 111, 7-(2-((1-(1H-1,2,3-triazol-4-yl)cyclopropyl)amino)-2-oxoacetyl)-6-methyl-N-(2,3,4-trifluorophenyl)-2,3-dihydro-1H-pyrrolizine-5-carboxamide], the EC50 in data set [2] was found to be 154 nM. For the same compound, the half-life in data set [3] was 10.1 h.

Consider `CNC(=O)C1(NC(=O)C(=O)c2c(C)c(C(=O)Nc3cccc(C(F)F)c3)n3c2CCC3)CC(F)(F)C1` [Example 115, 7-(2-((3,3-difluoro-1-(methylcarbamoyl)cyclobutyl)amino)-2-oxoacetyl)-N-(3-(difluoromethyl)phenyl)-6-methyl-2,3-dihydro-1H-pyrrolizine-5-carboxamide], for which the t½ in data set [1] worked out at 39.5 h. The same measure, in the same setting: for `CNC(=O)C1(NC(=O)C(=O)c2c(C)c(C(=O)Nc3ccc(F)c(C(F)F)c3)n3c2CCC3)CC(F)(F)C1` [Example 116, 7-(2-((3,3-difluoro-1-(methylcarbamoyl)cyclobutyl)amino)-2-oxoacetyl)-N-(3-(difluoromethyl)-4-fluorophenyl)-6-methyl-2,3-dihydro-1H-pyrrolizine-5-carboxamide] the value was 39.5 h.

`Cc1c(C(=O)C(=O)NC2(c3c[nH]nn3)CC2)c2n(c1C(=O)Nc1cc(F)cc(C#N)c1)CCC2` [Example 126, 7-(2-((1-(1H-1,2,3-triazol-4-yl)cyclopropyl)amino)-2-oxoacetyl)-N-(3-cyano-5-fluorophenyl)-6-methyl-2,3-dihydro-1H-pyrrolizine-5-carboxamide] registered an EC50 in data set [2] of 166 nM. For the same compound, in data set [3], the half-life was 10.7 h. The like results for `Cc1c(C(=O)C(=O)N[C@](C)(CO)C(F)(F)F)c2n(c1C(=O)Nc1ccc(F)c(Cl)c1)CCC2` [Example 132, (R)—N-(3-Chloro-4-fluorophenyl)-6-methyl-7-(2-oxo-2-((1,1,1-trifluoro-3-hydroxy-2-methylpropan-2-yl)amino)acetyl)-2,3-dihydro-1H-pyrrolizine-5-carboxamide] were, in that order, 8.3 nM and 7.7 h.

Compound `CNC(=O)[C@@](C)(NC(=O)C(=O)c1c(C)c(C(=O)Nc2ccc(F)c(F)c2)n2c1CCC2)C(F)(F)F` [Example 137, (R)—N-(3,4-difluorophenyl)-6-methyl-7-(2-oxo-2-((1,1,1-trifluoro-2-methyl-3-(methylamino)-3-oxopropan-2-yl)amino)acetyl)-2,3-dihydro-1H-pyrrolizine-5-carboxamide] came in with an EC50 in data set [2] of 158 nM. In data set [3], the half-life is 7.4 h. On the same counts, the results for `CNC(=O)[C@](C)(NC(=O)C(=O)c1c(C)c(C(=O)Nc2ccc(F)c(F)c2)n2c1CCC2)C(F)(F)F` [Example 138, (S)—N-(3,4-difluorophenyl)-6-methyl-7-(2-oxo-2-((1,1,1-trifluoro-2-methyl-3-(methylamino)-3-oxopropan-2-yl)amino)acetyl)-2,3-dihydro-1H-pyrrolizine-5-carboxamide] are 160 nM and 17.9 h. The like results for `CNC(=O)C1(NC(=O)C(=O)c2c(C)c(C(=O)Nc3ccnc(C(F)F)c3F)n3c2CCC3)CC(F)(F)C1` [Example 147, 7-(2-((3,3-difluoro-1-(methylcarbamoyl)cyclobutyl)amino)-2-oxoacetyl)-N-(2-(difluoromethyl)-3-fluoropyridin-4-yl)-6-methyl-2,3-dihydro-1H-pyrrolizine-5-carboxamide] were, in that order, 103 nM and 24.8 h.
